Source: PMC10607100, “Anticancer and Antiphytopathogenic Activity of Fluorinated Isatins and Their Water-Soluble Hydrazone Derivatives” (International Journal of Molecular Sciences, 2023)
Like-named read-outs stand apart in the source and are kept apart here.

How the values were obtained:
Format in all cases: cell-based
[1] = tested on: Xanthomonas campestris B-610; experiment: Agar-well diffusion, bactericidal activity; conditions: Xanthomonas campestris
In short: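 Agar-well diffusion on GYCa agar (pH 7.2–7.4) seeded with bacterial suspension; 150 μL compound solution placed in 6-mm wells. Inhibition zone width measured after 36–40 h incubation.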

[2] = tested on: Fusarium oxysporum IBPPM 543; experiment: Mycelial radial growth inhibition; conditions: for inhibition of growth at 1 µM: 1 nmol/mL; for inhibition of growth at 1 µM / inhibition of growth at 5 µM / inhibition of growth at 20 µM / inhibition of growth at 40 µM: read-out: Inhibition value, I (%); for inhibition of growth at 5 µM: 5 nmol/mL; for inhibition of growth at 20 µM: 20 nmol/mL; for inhibition of growth at 40 µM: 40 nmol/mL
In short: (§1)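 Compounds mixed into molten GPY agar at various concentrations; centre inoculated with a 5-mm mycelial plug from 10-day cultures and incubated at 27 °C. Colony diameter compared with untreated control until control plate was covered (usually 12 days); ≥4 replicates in two experiments.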

[3] = tested on: Phytophthora cactorum VKM F-985; experiment: Mycelial radial growth inhibition; conditions: for inhibition of growth at 3 µM: 3 nmol/mL; for inhibition of growth at 3 µM / inhibition of growth at 7 µM / inhibition of growth / inhibition of growth at 40 µM: read-out: Inhibition value, I (%); for inhibition of growth at 7 µM: 7 nmol/mL; for inhibition of growth: 27 nmol/mL; for inhibition of growth at 40 µM: 40 nmol/mL
In short: as §1

[4] = tested on: Micrococcus luteus B-109; experiment: Agar-well diffusion, bactericidal activity; conditions: Micrococcus luteus
In short: (§2)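 Bacteria spread on agar (BP medium; GYCa for X. campestris; pH 7.2–7.4) with 6-mm wells, each receiving 150 μL compound solution. Cultures grown at 28 °C; growth-inhibition zone width measured after 36–40 h.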

[5] = tested on: Pectobacterium atrosepticum 1043; experiment: Agar-well diffusion, bactericidal activity; conditions: Pectobacterium atrosepticum, 1043; 2 mM/L; average of 3 experiments; read-out: width of the inhibition zone (mm), P. atrosepticum
In short: as §2

[6] = tested on: Pectobacterium carotovorum subsp. carotovorum MI; experiment: Agar-well diffusion, bactericidal activity; conditions: Pectobacterium carotovorum, 2 mM/L
In short: as §2

[7] = tested on: Pseudomonas fluorescens EL-2.1; experiment: Agar-well diffusion, bactericidal activity; conditions: Pseudomonas fluorescens, EL2.1; 2 mM/L; average of 3 experiments; read-out: width of the inhibition zone (mm), Ps. fluorescens
In short: as §2

[8] = tested on: five representative phytopathogens; experiment: Agar-well diffusion, bactericidal activity over the panel of phytopathogens; conditions: 36 h, 2 mM solutions; dependent on the test system used; read-out: inhibition zone width (mm), range over the test systems
Excerpt: Plant pathogenic bacterial strains Micrococcus luteus B-109, Pectobacterium atrosepticum 1043, Pectobacterium carotovorum subsp. carotovorum MI, Pseudomonas fluorescens EL-2.1, and Xanthomonas campestris B-610 and the fungal strain Fusarium oxysporum IBPPM 543 were from the Collection of Rhizosphere Microorganisms, IBPPM RAS (WFCC no. 975, WDCM no. 1021) (CM IBPPM, http://collection.ibppm.ru). The pathogenic fungus Phytophthora cactorum VKM F-985, provided by the All-Russian Collection of Microorganisms (VKM) and deposited at the A.E. Favorsky Irkutsk Institute of Chemistry, SB RAS, was also used as a test organism. Bacteria M. luteus, P. carotovorum subsp. carotovorum, P. atrosepticum, and P. fluorescens were grown in a meat–peptone medium (BP), and X. campestris was grown in the medium with glucose, yeast extract, and calcium carbonate (GYCa). Solid media contained Bacto agar (18 g/L); pH was adjusted to 7.2–7.4. All bacterial cultures were grown at 28 °C. The mycelial cultures of F. oxysporum and P. cactorum were grown on a glucose–peptone–yeast (GPY) nutrient medium at 27 °C. For inoculum preparation, both fungal strains were initially grown on the agar GPY in Petri dishes and then transferred into the seed medium by punching out 5 mm of the agar plate culture with a self-designed cutter.
The antibacterial and antifungal activities of the compounds were explored using the agar-well diffusion method and the technique of mycelial radial growth inhibition. The method of diffusion in agar (measuring the diameter of growth inhibition zones) was used to determine the bactericidal activity. The 6-mm wells were made in agar medium (GYCa for Xanthomonas campestris or BP for other bacteria). Bacterial suspensions were distributed over the agar surface, and the tested compound’s solution (150 μL) was added to each well. The width of growth inhibition zones around the wells was determined after incubation for 36–40 h.

[9] = Fusarium oxysporum, IBPPM543, 72 h, age of the fungus 3 days
[10] = Fusarium oxysporum, IBPPM543, 120 h, age of the fungus 5 days
[11] = Fusarium oxysporum, IBPPM543, 168 h, age of the fungus 7 days
[12] = Fusarium oxysporum, IBPPM543, 216 h, age of the fungus 9 days
[13] = Phytophthora cactorum, 72 h, age of the fungus 3 days
[14] = Phytophthora cactorum, 120 h, age of the fungus 5 days
[15] = Phytophthora cactorum, 168 h, age of the fungus 7 days
[16] = Phytophthora cactorum, 216 h, age of the fungus 9 days

In the case of `Cc1ccc[n+](CC(=O)N/N=C2\C(=O)N(Cc3c(F)cccc3Cl)c3ccccc32)c1C` [Compound 7b], the zone of inhibition at 2000 µM ([1]; B610, 2 mM/L, average of 3 experiments, read-out: width of the inhibition zone (mm), X. campestris) is reported as 7 mm, the zone of inhibition at 2000 µM ([1]; B610, Table S3, 2 mM/L, read-out: Inhibition zone width (mm), not less) is reported as at least 7 mm and the inhibition of growth at 1 µM [2, 9] is reported as 13%. It also gave an inhibition of growth at 5 µM [2, 9] of 32%, an inhibition of growth at 20 µM [2, 9] of 35% and an inhibition of growth at 40 µM [2, 9] of 55%. For the same molecule, the EC50 ([2]; Fusarium oxysporum, IBPPM543, 120 h, day 5, read-out: EC50, µg/mL at Day 5, F. oxysporum) was at most 21 µg/mL, the inhibition of growth at 1 µM [2, 10] was 15% and the inhibition of growth at 5 µM [2, 10] was 29%. The inhibition of growth at 20 µM [2, 10] was 35%, the inhibition of growth at 40 µM [2, 10] was 52% and the inhibition of growth at 1 µM [2, 11] was 10%. The inhibition of growth at 5 µM [2, 11] was 20%, the inhibition of growth at 20 µM [2, 11] was 30% and the inhibition of growth at 40 µM [2, 11] was 43%. For the same molecule, the inhibition of growth at 1 µM [2, 12] was 11%, the inhibition of growth at 5 µM [2, 12] was 13% and the inhibition of growth at 20 µM [2, 12] was 25%. For the same molecule, the inhibition of growth at 40 µM [2, 12] was 39%, the “fungicidal action stronger than N-cetylpyridinium chloride” value ([2]; same culture age (5 days)) was 7.0 times and the “inhibition of Fusarium growth greater than fludioxonil” value ([2]; same culture age (5 days)) was 4.1 times. For the same molecule, the “antagonistic effect superior to that of N-cetylpyridinium chloride” value ([3]; 5 days of growth) was 1.3 times, the “antagonistic effect superior to that of fludioxonil” value ([3]; 5 days of growth) was 1.1 times and the inhibition of growth at 3 µM [3, 13] was 15%. For the same molecule, the inhibition of growth at 7 µM [3, 13] was 25%, the inhibition of growth [3, 13] was 30% and the inhibition of growth at 40 µM [3, 13] was 39%. For the same molecule, the EC50 ([3]; Phytophthora cactorum, 120 h, day 5, read-out: EC50, µg/mL at Day 5, P. cactorum) was at most 28 µg/mL, the inhibition of growth at 3 µM [3, 14] was 12% and the inhibition of growth at 7 µM [3, 14] was 25%. It also gave an inhibition of growth [3, 14] of 32%, an inhibition of growth at 40 µM [3, 14] of 40% and an inhibition of growth at 3 µM [3, 15] of 9%. The inhibition of growth at 7 µM [3, 15] was 22%, the inhibition of growth [3, 15] was 28% and the inhibition of growth at 40 µM [3, 15] was 37%. It also gave an inhibition of growth at 3 µM [3, 16] of 7%, an inhibition of growth at 7 µM [3, 16] of 16% and an inhibition of growth [3, 16] of 21%. For the same molecule, the inhibition of growth at 40 µM [3, 16] was 35%, the zone of inhibition at 2000 µM ([4]; B109, 2 mM/L, average of 3 experiments, read-out: width of the inhibition zone (mm), M. luteus) was 7 mm and the zone of inhibition at 2000 µM ([4]; B109, Table S3, 2 mM/L, read-out: Inhibition zone width (mm), not less) was at least 7 mm. The zone of inhibition at 2000 µM [5] was 4 mm, the zone of inhibition at 2000 µM ([6]; average of 3 experiments, read-out: width of the inhibition zone (mm), P. carotovorum subsp. carotovorum) was 5 mm and the zone of inhibition at 2000 µM ([6]; Table S3, read-out: Inhibition zone width (mm), not less) was at least 5 mm. The zone of inhibition at 2000 µM [7] was 4.5 mm and the zone of inhibition at 2000 µM [8] was 4 to 7 mm.
